The values that follow come from doi:10.1101/2022.07.25.501355v1, “Building artificial plant cell wall on lipid bilayer by assembling polysaccharides and engineered proteins” (biorxiv, 2022).

One assay concerns the target Janus lectin RSL-CBM77Rf. In kind it is binding, Ralstonia nicotianae / Ruminococcus flavefaciens. The note with it: 25 °C; 20 mM Tris pH 7.5, 100 mM NaCl (ligand in 20 mM Tris pH 7.5); site on CBM77Rf part; ligand mainly DP7 with some DP8.
The target in another assay is T1, diCBM77Rf (Ruminococcus flavefaciens, UniProt A0A1A9TA81).
T1 construct: CBM77 domain only; N-terminal His-tag cut by TEV; E. coli BL21(DE3)
T1 sequence (A0A1A9TA81 2-115): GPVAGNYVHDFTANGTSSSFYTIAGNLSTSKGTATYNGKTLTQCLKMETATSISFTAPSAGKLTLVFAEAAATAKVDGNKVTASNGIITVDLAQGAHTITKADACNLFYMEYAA
Put plainly: isothermal titration calorimetry. In kind it is binding. The note with it: 25 °C; 20 mM Tris pH 7.5, 100 mM NaCl (ligand in 20 mM Tris pH 7.5); N fixed at 2 in the fit; no full sigmoid; ligand mainly DP7 with some DP8. An excerpt:
isothermal titration calorimetry on diCBM77Rf
Background: In ITC the heat of successive injections is recorded.

Turning to `O=C(O)[C@H]1O[C@H](O[C@@H]2[C@H](O)[C@@H](O)[C@@H](O[C@@H]3[C@H](O)[C@@H](O)[C@@H](O[C@@H]4[C@H](O)[C@@H](O)[C@@H](O[C@@H]5[C@H](O)[C@@H](O)[C@@H](O[C@@H]6[C@H](O)[C@@H](O)[C@@H](O[C@@H]7[C@H](O)[C@@H](O)C(O)O[C@@H]7C(=O)O)O[C@@H]6C(=O)O)O[C@@H]5C(=O)O)O[C@@H]4C(=O)O)O[C@@H]3C(=O)O)O[C@@H]2C(=O)O)[C@H](O)[C@@H](O)[C@H]1O` (some centres unmarked) [GalA_DP7], the Kd was found to be 103 ± 15 µM at Janus lectin RSL-CBM77Rf and 1280 ± 100 µM on diCBM77Rf.

For orientation: Kd means the equilibrium constant for the complex coming apart. A lower Kd goes with tighter binding.
